Measured values from US20240343699A1, “DERIVATIVES OF SUBSTITUTED MORPHOLINES AND USES THEREOF” (Supernus Pharmaceuticals, Inc., priority 2023, published 2024).
Structures can show the parent of a compound that is named as a salt.

Assays:
behavioral signature = experiment: SmartCube phenotypic screening (class/subclass and DRFA similarity analysis); assay type: in vivo, male C57/B16 mice
Experimental: A study was conducted to evaluate the CNS-like efficacy of novel test compounds using the SmartCube® System.
Animals. Male C57/B16 mice from Taconic Laboratories (Germantown, NY) were used. Upon receipt, mice were group-housed in OPTIMice® ventilated cages with 4 mice per cage. Mice were acclimated to the colony room for at least one week prior to test, and subsequently tested at approximately 8-9 weeks of age. All animals were examined, handled, and weighed prior to initiation of the study to assure adequate health and suitability and to minimize nonspecific stress associated with manipulation. During the course of the study, 12/12 light/dark cycles were maintained. The room temperature was 20-23° C. with a relative humidity maintained between 30-70%. Chow and water were provided ad libitum for the duration of the study.
Test compounds. All compounds were administered orally at a dose volume of 10 mL/kg, 20 minutes prior to testing. Formulations were prepared fresh on day of testing and dosing was completed within one hour of formulation. Compounds were prepared according to the table below. Twelve mice were used in each treatment group:
SmartCube®. The SmartCube® system is designed to and can successfully measure numerous spontaneous behaviors and response to challenges in the same testing environment. The hardware includes force sensors and a number of aversive stimuli to elicit behavior. Three high-resolution video cameras provide constant 3D view of the mouse in the SmartCube® apparatus (SC) throughout the entire testing period. During the 45-minute test session the mice are exposed to a sequence of challenges. The cubes are cleaned between each run.
Digital videos of the subjects were processed through computer segmentation algorithms to fit geometrical models to each mouse frame image. The resulting fitted parameters were then analyzed using behavioral classifier algorithms to extract behavioral states, such as rearing, locomotion, and immobility. The data obtained in this way was used to define a drug signature for PGI's known reference compounds and establish a therapeutic class signature against which a test sample can be compared.
The data mining effort utilizes several analytical methods including Bayesian probabilistic density models and Decision trees. The algorithms consider ˜2,600 measures including frequency and duration of behavioral states such as grooming, rearing, etc., and many other features obtained during the test session.
Two major types of analyses are routinely conducted: Class and subclass.
Each reference drug was tested at multiple doses appropriate for that drug in mice.
Multiple analyses of the data were performed to quantitatively produce independent predictions of drug class, and drug subclass. The behavioral signatures of the test drugs were evaluated using these classifiers to predict potential therapeutic utility.
The results for the class and subclass analyses are presented as standardized bar charts with percentages that sum to 100 for each dose.
Similarity Analysis Using “Clouds Framework”. The outcome from SmartCube® is a large set of features (behavioral parameters) that can be used for various analyses. […] Therefore, we formed statistically independent combinations of the original features (further referred to as de-correlated features). Each de-correlated feature extracted information from the whole cluster of the original features, so the new feature space would have lower dimensionality. Next, we applied a proprietary feature ranking algorithm to score each feature for its discrimination power (ability to separate the two groups, e.g. vehicle from treatment). Ranking is an important part of our analyses because it weighs each feature change by its relevance. We applied a feature ranking algorithm, derived from support vector in the support vector machine learning method, to rank each feature.

prepulse inhibition = experiment: Prepulse inhibition (PPI) of the auditory startle response, apomorphine-impairment model; conditions: for % PPI (mean ± SEM): averaged across prepulse levels
Experimental: Four standard startle chambers (San Diego Instruments, San Diego, CA) were used. […] The tube is mounted on a plastic frame, under which a piezoelectric accelerometer is mounted, which records and transduces the motion of the tube. Three days before drug testing the experimental subjects were each placed in one of the startle test chambers for a period of 10 minutes (without any startle stimuli) as an initial period of acclimation to the apparatus. Two days before drug testing the animals were again placed in the test chamber and then exposed to 12 startle stimuli and to each prepulse level 3 times (see below). This procedure was done to reduce the highly variable responses to the initial exposures to the startle stimuli as well as to ensure that the prepulse stimuli (alone) had no significant effect on the startle response. One day before drug testing, a full 60 trial PPI test session (as subsequently described for the drug testing experiments, see below) was conducted for all experimental subjects.
On the day of drug testing the rats were transported to the startle chamber room and left undisturbed for at least 30 min. […] After this period, the rats received 12 startle trials, 12 no-stimulus trials, and 12 trials of each of the prepulse/startle trials (see below) for a total of 60 trials. The intertrial interval ranged from 10 to 30 s, and the total session lasted about 25-30 min. The startle trials consisted of single 120 dB white noise bursts lasting 20 ms.
The prepulse inhibition trials consisted of a prepulse (20 ms burst of white noise with intensities of 75, 80, or 85 dB) followed, 100 ms later, by a startle stimulus (120 dB, 20 ms white noise). During the no-stimulus trial, no startle noise was presented, but the movement of the rat was recorded. This represented a control trial for detecting differences in overall activity. The 60 different trials were presented pseudo-randomly, ensuring that each trial was presented 12 times and that no two consecutive trials were identical. The resulting movement of the rat in the startle chamber was measured during 100 ms after startle stimulus onset (sampling frequency 1 kHz), rectified, amplified, and fed into a computer that determined the maximal response that occurred during the 100-ms period. Basal startle amplitude was determined as the mean amplitude of the 12 startle trials. Prepulse inhibition was calculated according to the formula 100−100%×(PPx/P120), in which PPx is the mean of the 12 prepulse inhibition trials (i.e., for each individual prepulse level), and p120 is the basal startle amplitude. The average level of PPI was also calculated (average of the responses to pp75, pp80, or pp85) and analyzed separately.

sleep/wake and cataplexy = assay type: in vivo, male DTA mice; conditions: amphetamine 2 mg/kg i.p.
cognitive flexibility = experiment: Operant set-shifting test against PCP; assay type: in vivo, male Wistar rats
Experimental: This assay serves as a model of impaired executive function associated with neuropsychiatric disorders like schizophrenia. The aim of this study was to evaluate COMPOUND C to reverse deficits observed with PCP on cognitive flexibility using the operant set-shifting test in the rat.
Substances & Formulation.
Doses were prepared by separate weighing (W/V). COMPOUND C formulations were prepared fresh on each dosing day and dosing was completed within 8 hours of formulation. Phencyclidine (PCP) hydrochloride, white powder, was dissolved in physiological saline by magnetic stirring, fresh each day of dosing.
Test System. 78 male Wistar rats were supplied for this study. • 72 rats, 8-9 weeks old, weighing 218-299 g at the beginning of the visual discrimination were submitted to the entire behavioral testing and assigned to match groups based on their performance during the second visual discrimination session. • 6 spare rats were submitted to lever pressing, side bias and visual discrimination but were discarded for the testing period (set-shift and reversal)
The experimental protocol which detects effects on behavioral flexibility follows that described by Floresco et al. (Behav. Brain Res., 190, 85-96 (2008)).
Apparatus. The apparatus consists of standard Med Associates ENV-008 Skinner boxes (30×25×30 cm) fitted with a house light, two retractable levers and a food pellet dispenser. The levers are located on either side of the food receptacle connected to the pellet dispenser. A light emitting diode stimulus light is positioned centrally above each lever and served as a stimulus for visual-cue discrimination learning.
Acquisition of lever-pressing (training). The aim of this phase was to train animals to lever-press to receive a food pellet reward.
Side bias. On the last day of training, the side bias for the rat was determined. The session was similar to the lever pressing session except that both levers were inserted into the chamber together (i.e. 90 levers presentations every 20 seconds). Again, the stimulus lights above each of the levers were not illuminated during this training session. On the first levers presentation, a food pellet was delivered after responding on either lever. Upon subsequent insertion of the levers, food was delivered only if the rat responded on the lever opposite to the one chosen initially. If the rat chose the same lever to the initial choice, no food was delivered. This continued until the rat chose the lever opposite to the one chosen initially. After choosing both levers, a new trial commenced. Thus, one trial for the side bias procedure consisted of responded on both levers. The sessions terminated after 90 levers presentations or after completion of 21 trials.
Visual-cue discrimination learning. After determining the side bias, animals were submitted to visual-cue discrimination learning.
A session began with both levers retracted and the chamber in darkness (the inter-trial state). Every 20 seconds, a trial began with illumination of one of the stimulus lights above one of the levers. 3 seconds later, the house light was illuminated, and both levers were inserted into the chamber. […] After food delivery, the house light remained on for another 4 seconds, after which the chamber returned to the inter-trial state. If the rat responded on the other lever (incorrect response), both levers retracted immediately without food delivery and the chamber reverted to the inter-trial state.

[1] = PK of S-viloxazine after single PO administration; conditions: for Tmax: 40 mg/kg
Experimental: Study Design. […] Food was returned 2 hours post-dose.
Test Article Formulation.

anxiety-like behavior = experiment: Elevated plus maze (EPM); assay type: in vivo, male Wistar rats; conditions: for Closed arm entries / Closed arm returns / Head dips in open arms / Stretch-attend postures / Time in closed arms / Time in open arms / Total arm entries: mean; for % Time in open arms / Open Arm Entries / Total distance travelled: mean ± S.E.M.
[2] = DRFA dose by dose, maximum (COMPOUND A: 90 and 120 mg/kg)
[3] = vehicle + apomorphine 0.5 mg/kg s.c.
[4] = haloperidol 0.3 mg/kg + apomorphine
[5] = PCP 2 mg/kg s.c., first reversal session
[6] = PCP 2 mg/kg s.c., first set-shift session
[7] = PCP 2 mg/kg s.c., first set-shift to response discrimination session
[8] = S(−)-VLX in plasma, 40 mg/kg PO, fasted rats
[9] = 15 mg/kg PO 20 min prior to EPM
[10] = 30 mg/kg PO 20 min prior to EPM
[11] = 60 mg/kg PO 20 min prior to EPM
[12] = Study 1, 0.5 mg/kg i.p. 30 min before testing
[13] = Study 2, 0.5 mg/kg i.p. 30 min before testing

## CCOc1ccccc1OCC1CNCCO1 (racemic) [Viloxazine, (R,S)-2-[(2-ethoxyphenoxy)methyl]morpholine, reference compound]
Behavioral signature; 15 mg/kg PO
  behavioral activity (class/subclass analysis): low behavioral activity
Behavioral signature; 30 mg/kg PO
  behavioral activity (class/subclass analysis): moderate activity
Behavioral signature; 60 and 90 mg/kg PO
  behavioral activity (class/subclass analysis): high activity
Behavioral signature; [2]
  proximity to donepezil: around 100%
  proximity to thioperamide: around 100%
Behavioral signature; DRFA dose by dose, maximum reached
  proximity to memantine: 57%

## CN1CCc2cccc3c2[C@H]1Cc1ccc(O)c(O)c1-3 [APO, apomorphine, reference compound]
Prepulse inhibition; apomorphine 0.5 mg/kg s.c., all three prepulse levels
  effect on PPI compared to vehicle: significantly (p<0.05) diminished PPI
Prepulse inhibition; [3]
  Acoustic Startle (AU) (mean ± SEM): 1546.1 ± 260.5 AU
  % PPI (mean ± SEM): 33.4 ± 5.5 %

## C[C@H](N)Cc1ccccc1 [Amphetamine, d-Amphetamine sulfate, reference compound]
sleep/wake and cataplexy
  LMA: overall increase in LMA
  Levels of C: generally unaffected
  W and NREM time: increased W and decreased NREM
  latency to sleep onset: increased latency to the onset of both NREM and REM sleep

## O=C(CCCN1CCC(O)(c2ccc(Cl)cc2)CC1)c1ccc(F)cc1 [HAL, haloperidol, reference compound]
Prepulse inhibition; [4]
  Acoustic Startle (AU) (mean ± SEM): 1774.3 ± 770.6 AU
  % PPI (mean ± SEM): 55.2 ± 6.3 ^+ %
Prepulse inhibition; haloperidol 0.3 mg/kg, 75, 80 and 85 dB prepulse levels
  effect on apomorphine-induced PPI deficit: significantly antagonized the effects of apomorphine on PPI

## c1ccc(C2(N3CCCCC3)CCCCC2)cc1 [PCP, Phencyclidine (PCP) hydrochloride]
Cognitive flexibility; [5]
  number of errors vs saline controls: +66%
  number of trials to reach the criterion vs saline controls: +35%
Cognitive flexibility; [6]
  perseverative errors (average): 35.8
  total errors (average): 37.8
Cognitive flexibility; [7]
  number of errors vs saline controls: +47%
  number of trials to reach the criterion vs saline controls: +45%
Cognitive flexibility; PCP, second session (drug-free)
  number of trials vs saline controls: +31%

## CCOc1ccccc1OC[C@@H]1CNCCO1 [S(−)-VLX]
[1]; [8]
  AUC0-last: 3594 ± 1641 ng·h/mL
  AUC(0-inf): 3600 ng·h/mL
  AUCExtra: 0.20%
  AUMCExtra: 1.64%
  Cmax: 2973 ± 1201 ng/mL
  MRT0-inf: 67.2 min
  MRT0-last: 66 ± 6.36 min
  T1/2: 58.2 ± 16.3 min
  Tlast: 8.00 h
  Tmax: 25.2 min
[1]; S(−)-VLX in plasma, 40 mg/kg PO, fasted rats, listed as S-Viloxazine
  Tmax: 25 ± 8.64 min
[1]; after S-Viloxazine 40 mg/kg PO, LLOQ 1.5 ng/mL
  enantiomer R(+) VLX in plasma: not detectable at any time points
anxiety-like behavior; [9]
  Closed arm entries: 7.13
  Closed arm returns: 2.13
  Head dips in open arms: 1.38
  Stretch-attend postures: 17.13
  Time in closed arms: 289.33 s
  Time in open arms: 1.08 s
  Total arm entries: 7.25
  % Time in open arms: 0.36 ± 0.36%
  Open Arm Entries: 0.13 ± 0.13
  Total distance travelled: 1334.42 ± 90.911 cm
anxiety-like behavior; [10]
  Closed arm entries: 7.88
  Closed arm returns: 2.75
  Head dips in open arms: 3.38
  Stretch-attend postures: 19.38
  Time in closed arms: 277.60 s
  Time in open arms: 6.11 s
  Total arm entries: 8.25
  % Time in open arms: 2.04 ± 1.60%
  Open Arm Entries: 0.38 ± 0.26
  Total distance travelled: 1334.22 ± 68.23 cm
anxiety-like behavior; [11]
  Closed arm entries: 6.00
  Closed arm returns: 3.50
  Head dips in open arms: 2.88
  Stretch-attend postures: 16.38
  Time in closed arms: 279.11 s
  Time in open arms: 6.43 s
  Total arm entries: 6.50
  % Time in open arms: 2.14 ± 1.52%
  Open Arm Entries: 0.50 ± 0.38
  Total distance travelled: 1350.11 ± 96.17 cm
anxiety-like behavior; S-VLX 15, 30, 60 mg/kg p.o.
  anxiolytic activity: None of the doses of S-Viloxazine were associated with anxiolytic activity
anxiety-like behavior; S-VLX 15, 30, and 60 mg/kg p.o.
  total distance traveled vs vehicle: travelled a significantly shorter distance

## Cc1ncc2n1-c1ccc(Cl)cc1C(c1ccccc1F)=NC2 [midazolam]
anxiety-like behavior; [12]
  Closed arm entries: 14.13
  Closed arm returns: 1.38
  Head dips in open arms: 7.00
  Stretch-attend postures: 18.88
  Time in closed arms: 247.54 s
  Time in open arms: 18.47 s
  Total arm entries: 16.75
  % Time in open arms: 6.16 ± 1.96 %
  Open Arm Entries: 2.63 ± 0.78
  Total distance travelled: 2064.55 ± 111.02 cm
anxiety-like behavior; [13]
  Closed arm entries: 13.89
  Closed arm returns: 1.44
  Head dips in open arms: 5.67
  Stretch-attend postures: 20.33
  Time in closed arms: 259.11 s
  Time in open arms: 18.38 s
  Total arm entries: 16.22
  % Time in open arms: 6.13 ± 1.80 %
  Open Arm Entries: 2.33 ± 0.60
  Total distance travelled: 2052.96 ± 791.05 cm
anxiety-like behavior; midazolam 0.5 mg/kg i.p., both studies
  anxiolytic activity: exhibited anxiolytic activity
